Values quoted from earlier work, collected in patent US20240009433A1, “METHODS FOR CONTINUOUS ORAL DRUG DELIVERY” (SynAgile Corporation, priority 2020, published 2024).

Experiments:
[1] = in vivo
[2] = in vivo; remark: listed apart in the source
[3] = in vivo; remark: listed apart in the source

| plasma half-life [1] [h] | crossing of the blood-brain barrier [2] | SMILES | hepatotoxicity [3] |
| --- | --- | --- | --- |
| 2 to 3 | crosses the barrier | Cc1ccc(C(=O)c2cc(O)c(O)c([N+](=O)[O-])c2)cc1 [Tolcapone] | use is limited by its hepatotoxicity |
| 0.4 to 0.7 | does not cross the blood-brain barrier | CCN(CC)C(=O)/C(C#N)=C/c1cc(O)c(O)c([N+](=O)[O-])c1 [Entacapone] | – |
